Source: publication PMC8041284, “Tunable Methacrylamides for Covalent Ligand Directed Release Chemistry” (Journal of the American Chemical Society, 2021)
Read-outs that look alike come from different tables or passages of the source. Where a SMILES comes first, the peptide text is derived from it. The star is where a group is joined. Cbz = O=C(OCc1ccccc1)*

Target: BTK (Homo sapiens, UniProt Q06187)
Assay: biochemical
[1] = read-out: BTK inhibition (%), 0.75 uM BTK, […] probe 3l, 15 min preincubation

Chain of BTK (Q06187 402-655 limits assumed): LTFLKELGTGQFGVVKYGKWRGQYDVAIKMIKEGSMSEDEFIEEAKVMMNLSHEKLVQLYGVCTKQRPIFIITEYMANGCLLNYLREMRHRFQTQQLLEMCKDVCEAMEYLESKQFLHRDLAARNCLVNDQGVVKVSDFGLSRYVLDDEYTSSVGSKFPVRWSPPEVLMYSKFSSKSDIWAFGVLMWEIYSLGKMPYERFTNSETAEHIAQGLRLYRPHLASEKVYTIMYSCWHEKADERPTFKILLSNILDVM

Row | Structure (SMILES) | inhibition at 10 µM [1] | inhibition at 10 µM (read-out: BTK inhibition (%))
1 | O=C(O[C@@H]1O[C@@H]2COC(=O)c3cc(O)c(O)c(O)c3-c3c(cc(O)c(O)c3O)C(=O)O[C@H]([C@H]1O)[C@@H]2O)c1cc(O)c(O)c(O)c1 [PCM-0216383] | 37.1% | 
2 | N#Cc1c(O)c2c(-c3ccc(-c4ccccc4O)cc3)csc2[nH]c1=O [PCM-0095407] | 51.7% | 
3 | CC(C)[C@H](O)C(=O)N[C@@H](C)C(=O)N[C@@H]1C(=O)N(C)CCc2ccccc21 [PCM-0214637] | -3.1% | 
4 | CNC(=O)c1cc(Oc2ccc(NC(=O)Nc3cc(C(C)(C)C)nn3-c3ccc4ncccc4c3)c(F)c2)ccn1 [PCM-0095514] | 98.6% | 
5 | O=C1C=C2C=C[C@@H](O)[C@H](O)[C@H]2O1 [PCM-0216441] | 25.5% | 
6 | CN(CCOc1ccc(NS(C)(=O)=O)cc1)CCc1ccc(NS(C)(=O)=O)cc1 [PCM-0065138] | -7% | 
7 | Cc1cccc(-c2[nH]c(C(C)(C)C)nc2-c2ccc3nccnc3c2)n1 [PCM-0065614] | 25.5% | 
8 | O=c1cc(O)c(Cl)c[nH]1 [PCM-0095217] | -3.9% | 
9 | O=C(O)c1ccc(Nc2ncc3c(n2)-c2ccc(Cl)cc2C(c2c(F)cccc2F)=NC3)cc1 [PCM-0095077] | 79.3% | 
10 | C#C[C@]1(O)CC[C@H]2[C@@H]3CCc4cc(OC)ccc4[C@H]3CC[C@@]21C [PCM-0214662] | 8.6% | 
11 | C[C@@H]1CC[C@@]2(OC1)O[C@H]1C[C@H]3[C@@H]4CC=C5C[C@@H](O[C@@H]6O[C@H](CO)[C@@H](O)[C@H](O)[C@H]6O[C@@H]6O[C@@H](C)[C@H](O)[C@@H](O)[C@H]6O)CC[C@]5(C)[C@H]4CC[C@]3(C)[C@@]1(O)[C@@H]2C [PCM-0216535] | 5.4% | 
12 | Cc1c(-c2ccccc2)oc2c(C(=O)OCCN3CCCCC3)cccc2c1=O [PCM-0085770] | 12.8% | 
13 | Cc1ccc(C(=O)Nc2cccc(C(F)(F)F)c2)cc1Nc1nc(-c2cccnc2)nc2c1cnn2C [PCM-0095241] | 4.8% | 
14 | O=C(NCc1ccccc1)c1csc(Nc2ccncn2)n1 [PCM-0095135] | -9% | 
15 | O=C(/C=C\n1cnc(-c2cc(C(F)(F)F)cc(C(F)(F)F)c2)n1)NNc1cnccn1 [PCM-0095752] | 6.9% | 
16 | COCCOc1ccc2c(c1)ncn2-c1ccc2cccc(N3CCC(N)CC3)c2n1 [PCM-0095094] | -18.6% | 
17 | CC(C)=CCc1cc2c(cc1O)O[C@H](c1ccc(O)cc1)CC2=O [PCM-0216180] | 54.1% | 
18 | CCOC(=O)c1ccc(C#Cc2ccc3c(c2)C(C)(C)CCS3)nc1 [PCM-0095130] | -16.6% | 
19 | Oc1cccc(O)c1O [PCM-0214990] | -12.4% | 
20 | CN1C[C@@H]2C[C@H]1CN2c1cc2c(cc1F)c(=O)c(C(=O)O)cn2C1CC1 [PCM-0095547] | 10.2% | 
21 | CC(=O)O[C@]1(C)CC[C@@]23C[C@@H]1C(C)(C)[C@@H]2CC[C@H]3C [PCM-0215054] | 10.9% | 
22 | Nc1nc2c(ncn2COCCO)c(=O)[nH]1 [PCM-0064530] | -15.6% | 
23 | C[C@@H]1O[C@@H](OC[C@H]2O[C@@H](Oc3cc(O)c4c(c3)O[C@H](c3ccc(O)c(O)c3)CC4=O)[C@H](O)[C@@H](O)[C@@H]2O)[C@H](O)[C@H](O)[C@H]1O [PCM-0216467] | 10% | 
24 | CC(C)N1CCN(Cc2cnc(-c3cc(-c4cccc5[nH]ccc45)cc4[nH]ncc34)o2)CC1 [PCM-0213407] | 51.7% | 
25 | CC1=C[C@H]2Cc3[nH]c(=O)ccc3[C@]3(C1)NCCC[C@H]23 [PCM-0216475] | -10% | 
26 | COc1ccc(-c2coc3cc(O)cc(O)c3c2=O)cc1 [PCM-0086643] | 2.3% | 

Row | Structure (SMILES) | inhibition at 10 µM [1] | inhibition at 10 µM (read-out: BTK inhibition (%))
27 | Cc1cc(=O)c(C(=O)N[C@@H](C(=O)N[C@@H]2C(=O)N3C(C(=O)O)=C(CSc4nnnn4C)CS[C@H]23)c2ccc(O)cc2)c[nH]1 [PCM-0216260] | 23.2% | 
28 | C[C@H](CN(C)C)Oc1nc(Nc2cc3cccc(Cl)c3cn2)cnc1C#N [PCM-0215773] | -3.4% | 
29 | C[C@H]1C[C@@H]2[C@H]([C@@H](O)C[C@@]3(C)[C@H]2CC[C@]3(O)C(=O)CO)[C@@]2(C)C=CC(=O)C=C12 [PCM-0085838] | 9% | 
30 | C[C@@H]1O[C@@H](Oc2c(-c3cc(O)c(O)c(O)c3)oc3cc(O)cc(O)c3c2=O)[C@H](O)[C@H](O)[C@H]1O [PCM-0089676] | -2.3% | 
31 | O=C(O)c1ccc(-n2nc(-c3ccccc3O)nc2-c2ccccc2O)cc1 [PCM-0095168] | 36.6% | 
32 | O=C(CCCCCCNC(=O)c1cnc(N(c2ccccc2)c2ccccc2)nc1)NO [PCM-0095595] | -18.5% | 
33 | Nc1ccn([C@H]2CC[C@@H](CO)O2)c(=O)n1 [PCM-0065156] | -22.6% | 
34 | Nc1cccc(-c2cc3c(Oc4cccc(O)c4)ncnc3[nH]2)c1 [PCM-0095147] | 82.1% | 
35 | NS(=O)(=O)c1cc2c(cc1Cl)NC(C(Cl)Cl)NS2(=O)=O (stereo not shown) [PCM-0086441] | -14% | 
36 | C#CCC(Cc1cnc2nc(N)nc(N)c2n1)c1ccc(C(=O)N[C@@H](CCC(=O)O)C(=O)O)cc1 (stereo partly shown) [PCM-0095176] | 1.6% | 
37 | CC(C)C[C@H](NP(=O)(O)O[C@@H]1O[C@@H](C)[C@H](O)[C@@H](O)[C@H]1O)C(=O)N[C@@H](Cc1c[nH]c2ccccc12)C(=O)O [PCM-0215347] | 14.7% | 
38 | CC(C)(O)CNc1nc(Nc2ccnc(C(F)(F)F)c2)nc(-c2cccc(C(F)(F)F)n2)n1 [PCM-0215637] | 19.3% | 
39 | CCC(=O)O[C@]1(C(=O)CCl)[C@@H](C)C[C@H]2[C@@H]3C[C@H](F)C4=CC(=O)C=C[C@]4(C)[C@@]3(F)[C@@H](O)C[C@@]21C [PCM-0214768] | 22.8% | 
40 | CNc1nc(-c2ccc3c(N)n[nH]c3c2)cc(N2C[C@@H](C(=O)NC3CCCCC3)CC[C@H]2C)n1 [PCM-0095768] | 24.1% | 
41 | CC(C)C[C@@H](C=O)NC(=O)[C@H](CC(C)C)NC(=O)[C@H](CC(C)C)NC(=O)OCc1ccccc1 [PCM-0095809] (Cbz-Leu-Leu-Leu-aldehyde) | 5.4% | 
42 | CCCC[S+]([O-])c1sc2nc(-c3cccs3)cc(-c3ccccc3)c2c1N (stereo not shown) [PCM-0215569] | 0.8% | 
43 | COCCc1ccc(OCC(O)CNC(C)C)cc1 (stereo not shown) [PCM-0065348] | 17% | 
44 | CN1CCN(CCOc2cc(OC3CCOCC3)c3c(Nc4c(Cl)ccc5c4OCO5)ncnc3c2)CC1 [PCM-0094889] | 59.3% | 
45 | N[C@@H](Cc1cc(I)c(O)c(I)c1)C(=O)O [PCM-0215163] | -31.9% | 
46 | C[C@]12CC[C@H](O)C[C@@H]1CC[C@@H]1[C@@H]2CC[C@]2(C)C(=O)CC[C@@H]12 [PCM-0214741] |  | -21.8%
47 | O=c1c2ccccc2nc2n1CCc1c-2[nH]c2ccccc12 [PCM-0065551] | 0.7% | 
48 | CC(=O)O[C@H]1C(=O)[C@@]2(C)[C@H]([C@H](OC(=O)c3ccccc3)[C@]3(O)C[C@H](O)C(C)=C1C3(C)C)[C@]1(OC(C)=O)CO[C@@H]1C[C@@H]2O [PCM-0215022] | -17.1% | 
49 | OCCN1C[C@H](O)[C@@H](O)[C@H](O)[C@H]1CO [PCM-0086065] | -23.3% | 
50 | OC[C@H]1O[C@@H](O[C@@H]2[C@@H](CO)O[C@](O)(CO)[C@H]2O)[C@H](O)[C@@H](O)[C@H]1O [PCM-0214810] | 13.2% | 
51 | O=C(O)c1cc(=O)c2c(OCC(O)COc3cccc4oc(C(=O)O)cc(=O)c34)cccc2o1 [PCM-0086401] | 2.6% | 
52 | Cc1nc(C#Cc2ccnc(Cl)c2)c(C)n1-c1ccc(OC(F)(F)F)cc1 [PCM-0095504] | -55.3% | 
